Reference: patent US10059667B2, “Antidiabetic compounds” (MERCK SHARP & DOHME CORP., priority 2014, dated 2018)

Target: Human GPR40 (Homo sapiens (Human), UniProt O14842)
Assay: Inositol Phosphate Turnover (IP1) Assay 1, HEK cells stably expressing human GPR40, 3H-inositol SPA
Type: cell-based
Conditions: HEK cells stably expressing human GPR40, 96-well
Description: Human and mouse GPR40 stable cell-lines were generated in CHO cells stably expressing NFAT BLA (Beta-lactamase). A human GPR40 stable cell-line was generated in HEK cells stably expressing the aequorin expressing reporter. The expression plasmids were transfected using lipofectamine (Life Technologies) following manufacturer's instructions. Stable cell-lines were generated following drug selection.
The assay was performed in 96-well format. HEK cells stably expressing human GPR40 were plated to be 60-80% confluent within 72 h. After 72 h, the plates were aspirated and the cells washed with inositol-free DMEM (ICN). The wash media was replaced with 150 μL of 3H-inositol labeling media (inositol-free media containing 0.4% human albumin or 0.4% mouse albumin, 1× pen/strep antibiotics, glutamine, 25 mM HEPES to which was added 3H-myo-inositol NEN #NET114A 1 mCi/mL, 25 Ci/mmol diluted 1:150 in loading media with a final specific radioactivity of 1 μCi/150 μL). Alternatively, the human and mouse albumin can be added after the overnight labeling step before the addition of LiCl.
The assay was typically run the next day after 18 h labeling. On the day of the assay, 5 μL of 300 mM LiCl was added to all wells and incubated at 37 degrees for 20 min. 0.75 μL of each compound was added and incubated with the cells for 60 min at 37 degrees. The media was then aspirated off and the assay terminated with the addition of 60 μL 10 mM formic acid. The cells were lysed for 60 min at room temperature. 15-30 μL of lysate was mixed with 70 μL/1 mg YSi SPA beads (Amersham) in clear bottom Isoplates. The plates were shaken for 2 h at room temperature. Beads were allowed to settle and the plates were counted in the Wallac Microbeta.

Sequence of Human GPR40 (O14842 whole entry): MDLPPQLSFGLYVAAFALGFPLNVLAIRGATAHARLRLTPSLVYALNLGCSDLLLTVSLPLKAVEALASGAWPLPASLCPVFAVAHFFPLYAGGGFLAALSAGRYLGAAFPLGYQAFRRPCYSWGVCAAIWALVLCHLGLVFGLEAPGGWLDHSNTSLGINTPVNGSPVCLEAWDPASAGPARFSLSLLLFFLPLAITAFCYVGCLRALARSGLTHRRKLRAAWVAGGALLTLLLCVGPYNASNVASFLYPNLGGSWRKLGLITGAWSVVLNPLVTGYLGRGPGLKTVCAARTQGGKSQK

| EC50 | SMILES |
| --- | --- |
| 182 nM | CC(C)Oc1ccccc1OC1CC(COc2cccc([C@H](C3CC3)[C@H](C)C(=O)O)c2)C1 (single isomer, unassigned) [Example 127] |
| 90 nM | C[C@H](C(=O)O)[C@H](c1cccc(OC[C@H]2C[C@@H]2c2cc(F)ccc2F)c1)C1CC1 [Example 151] |
| 118 nM | COc1cccc([C@H]2CC[C@@H](COc3cccc([C@H](C4CC4)[C@H](C)C(=O)O)c3)C2)c1 [Example 79, (2S,3R)-3-cyclopropyl-3-(3-(((1R,3 S)-3-(3-methoxyphenyl)cyclopentyl)methoxy)phenyl)-2-methylpropanoic acid] |
| 109 nM | CCOc1ccccc1OC1CC(COc2cccc([C@H](C3CC3)[C@H](C)C(=O)O)c2)C1 (stereo partly drawn) [Example 112] |
| 544 nM | COc1ccc([C@H]2C[C@@H]2COc2cccc([C@H](C3CC3)[C@H](C)C(=O)O)c2)c(F)c1 [Example 154] |
| 3100 nM | C[C@H](C(=O)O)[C@H](c1cccc(OCC2CC(Oc3ccnc4c3OCCO4)C2)c1)C1CC1 (stereo partly drawn) [Example 111] |
| 89 nM | C[C@H](C(=O)O)[C@H](c1cccc(OC[C@H]2C[C@@H]2c2cc(Cl)ccc2F)c1)C1CC1 [Example 152] |
| 1960 nM | C[C@H](C(=O)O)[C@H](c1cccc(OCC2CC(Oc3cccnc3)C2)c1)C1CC1 (stereo partly drawn) [Example 110] |
| 13 nM | C[C@H](C(=O)O)[C@H](c1cccc(OCC2CCN(c3ncccc3C(F)(F)F)CC2)c1)C1CC1 [Example 38] |
| 560 nM | Cc1c(OC2CC(COc3cccc([C@H](C4CC4)[C@H](C)C(=O)O)c3)C2)nn(C)c1C(F)(F)F (stereo partly drawn) [Example 100] |
| 1390 nM | C[C@H](C(=O)O)[C@H](c1cccc(OCC2CC(Oc3ccc(OC(F)F)nc3)C2)c1)C1CC1 (stereo partly drawn) [Example 95] |
| 25 nM | C[C@H](C(=O)O)[C@H](c1cccc(OCC2CCN([C@H](C)c3cc(C(F)(F)F)ccc3C(F)(F)F)C2)c1)C1CC1 (stereo partly drawn) [Example 40] |
| 56 nM | COc1ccc(F)c([C@H]2C[C@@H]2COc2cccc([C@H](C3CC3)[C@H](C)C(=O)O)c2)c1 [Example 74] |
| 472 nM | COc1ccc([C@H]2C[C@@H]2COc2cccc([C@H](C3CC3)[C@H](C)C(=O)O)c2)cc1 [Example 159] |
| 98 nM | Cc1ccc(F)c(OC2CC(COc3cccc([C@H](C4CC4)[C@H](C)C(=O)O)c3)C2)c1 (single isomer, unassigned) [Example 119] |
| 316 nM | C[C@H](C(=O)O)[C@H](c1cccc(OC[C@H]2C[C@@H]2c2cc(C(F)(F)F)ccc2C(F)(F)F)c1)C1CC1 [Example 155] |
| 74 nM | C[C@H](C(=O)O)[C@H](c1cccc(OC[C@H]2C[C@@H]2c2cccc(OC3CC3)c2)c1)C1CC1 [Example 138] |
| 107 nM | C[C@H](C(=O)O)[C@H](c1cccc(OCC2CC(Oc3c(F)cccc3F)C2)c1)C1CC1 (stereo partly drawn) [Example 114] |
| 930 nM | COc1cc(C2CC(COc3cccc([C@H](C4CC4)[C@H](C)C(=O)O)c3)C2)ccn1 (single isomer, unassigned) [Example 88] |

| EC50 | SMILES |
| --- | --- |
| 175 nM | C[C@H](C(=O)O)[C@H](c1cccc(OC[C@H]2C[C@@H]2c2cc(C(F)(F)F)ccc2Cl)c1)C1CC1 [Example 143] |
| 50 nM | COc1ccc(C)cc1OC1CC(COc2cccc([C@H](C3CC3)[C@H](C)C(=O)O)c2)C1 (single isomer, unassigned) [Example 117] |
| 188 nM | COc1ccc(OC)c([C@H]2C[C@@H]2COc2cccc([C@H](C3CC3)[C@H](C)C(=O)O)c2)c1 [Example 139] |
| 7220 nM | C[C@H](C(=O)O)[C@H](c1cccc(OCC2CC(Oc3ccnn3C)C2)c1)C1CC1 (stereo partly drawn) [Example 101] |
| 181 nM | COc1cc(OC2CC(COc3cccc([C@H](C4CC4)[C@H](C)C(=O)O)c3)C2)ccn1 (stereo partly drawn) [Example 93] |
| 643 nM | C[C@H](C(=O)O)[C@H](c1cccc(OCC2CC(Oc3ccccn3)C2)c1)C1CC1 (stereo partly drawn) [Example 102] |
| 102 nM | COc1cc(C2CC(COc3cccc([C@H](C4CC4)[C@H](C)C(=O)O)c3)C2)ccn1 (stereo partly drawn) [Example 86] |
| 201 nM | C[C@H](C(=O)O)[C@H](c1cccc(OCC2CC(c3ccccc3)C2)c1)C1CC1 (stereo partly drawn) [Example 72] |
| 325 nM | COc1cc(F)c([C@H]2C[C@@H]2COc2cccc([C@H](C3CC3)[C@H](C)C(=O)O)c2)cc1F [Example 153] |
| 564 nM | COc1ccnc(OC2CC(COc3cccc([C@H](C4CC4)[C@H](C)C(=O)O)c3)C2)c1 (single isomer, unassigned) [Example 104] |
| 7240 nM | Cc1cc(OC2CC(COc3cccc([C@H](C4CC4)[C@H](C)C(=O)O)c3)C2)n(C)n1 (stereo partly drawn) [Example 97] |
| 8230 nM | COc1ncc(OC2CC(COc3cccc([C@H](C4CC4)[C@H](C)C(=O)O)c3)C2)cn1 (stereo partly drawn) [Example 96] |
| 61 nM | COc1cc(C2CC(COc3cccc([C@H](C4CC4)[C@H](C)C(=O)O)c3)C2)ccn1 (single isomer, unassigned) [Example 89] |
| 56 nM | COc1ccnc(OC2CC(COc3cccc([C@H](C4CC4)[C@H](C)C(=O)O)c3)C2)c1 (single isomer, unassigned) [Example 105] |
| 43 nM | COc1ccc(F)c(OC2CC(COc3cccc([C@H](C4CC4)[C@H](C)C(=O)O)c3)C2)c1 (stereo partly drawn) [Example 73] |
| 304 nM | C[C@H](C(=O)O)[C@H](c1cccc(OCC2CC2c2ccccc2)c1)C1CC1 (stereo partly drawn) [Example 68] |
| 146 nM | COc1cccc(C[C@H]2C[C@@H]2COc2cccc([C@H](C3CC3)[C@H](C)C(=O)O)c2)c1 [Example 70] |
| 54 nM | COc1cc(OC2CC(COc3cccc([C@H](C4CC4)[C@H](C)C(=O)O)c3)C2)c(F)cn1 (stereo partly drawn) [Example 106] |
| 166 nM | COc1cccc(C2CC2COc2cccc([C@H](C3CC3)[C@H](C)C(=O)O)c2)c1 (stereo partly drawn) [Example 69] |

| EC50 | SMILES |
| --- | --- |
| 60 nM | COc1cccc(OC2CC(COc3cccc([C@H](C4CC4)[C@H](C)C(=O)O)c3)C2)c1 (stereo partly drawn) [Example 64, (2S,3R)-3-Cyclopropyl-3-(3-((3-(3-methoxyphenoxy)cyclobutyl)methoxy)phenyl)-2-methylpropanoic acid] |
| 177 nM | C[C@H](C(=O)O)[C@H](c1cccc(OCC2CCN(c3cccc(C(F)(F)F)n3)CC2)c1)C1CC1 [Example 37] |
| 109 nM | COc1cc(F)cc([C@H]2C[C@@H]2COc2cccc([C@H](C3CC3)[C@H](C)C(=O)O)c2)c1 [Example 141] |
| 72 nM | COc1ccccc1OC1CC(COc2cccc([C@H](C3CC3)[C@H](C)C(=O)O)c2)C1 (stereo partly drawn) [Example 128] |
| 324 nM | C[C@H](C(=O)O)[C@H](c1cccc(OCC2CC(Oc3cccc(O)c3)C2)c1)C1CC1 (single isomer, unassigned) [Example 123] |
| 150 nM | C[C@H](C(=O)O)[C@H](c1cccc(OCC2CC(Oc3ccccc3-c3ccccc3)C2)c1)C1CC1 (stereo partly drawn) [Example 132] |
| 565 nM | COc1ccc(OC2CC(COc3cccc([C@H](C4CC4)[C@H](C)C(=O)O)c3)C2)cc1 (stereo partly drawn) [Example 125] |
| 262 nM | C[C@H](C(=O)O)[C@H](c1cccc(OCC2CC(Oc3cccc(C(F)(F)F)c3)C2)c1)C1CC1 (stereo partly drawn) [Example 136] |
| 147 nM | CC(C)Oc1ccccc1OC1CC(COc2cccc([C@H](C3CC3)[C@H](C)C(=O)O)c2)C1 (single isomer, unassigned) [Example 126] |
| 223 nM | C[C@H](C(=O)O)[C@H](c1cccc(OC[C@H]2C[C@@H]2c2cc(OC(F)(F)F)ccc2F)c1)C1CC1 [Example 145] |
| 22 nM | COc1cccc(OC2CC(COc3cccc([C@H](C4CC4)[C@H](C)C(=O)O)c3)C2)c1 (single isomer, unassigned) [Example 65] |
| 119 nM | COc1cccc(OC2CC(COc3cccc([C@H](C4CC4)[C@H](C)C(=O)O)c3)C2)c1 (single isomer, unassigned) [Example 66] |
| 94 nM | COc1cccc(C2CC2COc2cccc([C@H](C3CC3)[C@H](C)C(=O)O)c2)c1 (single isomer, unassigned) [Example 83] |
| 75 nM | COc1cccc(C2=CCC(COc3cccc([C@H](C4CC4)[C@H](C)C(=O)O)c3)C2)c1 (stereo partly drawn) [Example 78, (2 S,3R)-3-cyclopropyl-3-(3-((3-(3-methoxyphenyl)cyclopent-3-en-1 yl)methoxy)phenyl)-2-methylpropanoic acid] |
| 4470 nM | COc1cncc([C@H]2C[C@@H]2COc2cccc([C@H](C3CC3)[C@H](C)C(=O)O)c2)c1 [Example 150] |
| 225 nM | COc1cccc([C@H]2C[C@@H]2COc2cccc([C@H](C3CC3)[C@H](C)C(=O)O)c2)c1F [Example 140] |
| 408 nM | C[C@H](C(=O)O)[C@H](c1cccc(OCC2CC2Cc2ccccc2)c1)C1CC1 (stereo partly drawn) [Example 67] |
| 85 nM | C[C@H](C(=O)O)[C@H](c1cccc(OCC2CC(Oc3ccccc3Cl)C2)c1)C1CC1 (single isomer, unassigned) [Example 134] |
| 110 nM | C[C@H](C(=O)O)[C@H](c1cccc(OCC2CC(Oc3ccccc3F)C2)c1)C1CC1 (stereo partly drawn) [Example 94] |
